According to ChEMBL document CHEMBL4219073, “Development of selective inhibitors for the treatment of rheumatoid arthritis: (R)-3-(3-(Methyl(7H-pyrrolo[2,3-d]pyrimidin-4-yl)amino)pyrrolidin-1-yl)-3-oxopropanenitrile as a JAK1-selective inhibitor” (Bioorg Med Chem, 2018):
One block for each compound: values may come before it.

How the values were obtained:
[1] = biological target: T1, Tyrosine-protein kinase JAK2 (Homo sapiens, UniProt O60674); type: ADME
Description: Inhibition of recombinant human JAK2 (808-end residues) in presence of ATP

[2] = biological target: Tyrosine-protein kinase JAK1 (Homo sapiens, UniProt P23458)
Sequence of Tyrosine-protein kinase JAK1 (P23458 whole entry): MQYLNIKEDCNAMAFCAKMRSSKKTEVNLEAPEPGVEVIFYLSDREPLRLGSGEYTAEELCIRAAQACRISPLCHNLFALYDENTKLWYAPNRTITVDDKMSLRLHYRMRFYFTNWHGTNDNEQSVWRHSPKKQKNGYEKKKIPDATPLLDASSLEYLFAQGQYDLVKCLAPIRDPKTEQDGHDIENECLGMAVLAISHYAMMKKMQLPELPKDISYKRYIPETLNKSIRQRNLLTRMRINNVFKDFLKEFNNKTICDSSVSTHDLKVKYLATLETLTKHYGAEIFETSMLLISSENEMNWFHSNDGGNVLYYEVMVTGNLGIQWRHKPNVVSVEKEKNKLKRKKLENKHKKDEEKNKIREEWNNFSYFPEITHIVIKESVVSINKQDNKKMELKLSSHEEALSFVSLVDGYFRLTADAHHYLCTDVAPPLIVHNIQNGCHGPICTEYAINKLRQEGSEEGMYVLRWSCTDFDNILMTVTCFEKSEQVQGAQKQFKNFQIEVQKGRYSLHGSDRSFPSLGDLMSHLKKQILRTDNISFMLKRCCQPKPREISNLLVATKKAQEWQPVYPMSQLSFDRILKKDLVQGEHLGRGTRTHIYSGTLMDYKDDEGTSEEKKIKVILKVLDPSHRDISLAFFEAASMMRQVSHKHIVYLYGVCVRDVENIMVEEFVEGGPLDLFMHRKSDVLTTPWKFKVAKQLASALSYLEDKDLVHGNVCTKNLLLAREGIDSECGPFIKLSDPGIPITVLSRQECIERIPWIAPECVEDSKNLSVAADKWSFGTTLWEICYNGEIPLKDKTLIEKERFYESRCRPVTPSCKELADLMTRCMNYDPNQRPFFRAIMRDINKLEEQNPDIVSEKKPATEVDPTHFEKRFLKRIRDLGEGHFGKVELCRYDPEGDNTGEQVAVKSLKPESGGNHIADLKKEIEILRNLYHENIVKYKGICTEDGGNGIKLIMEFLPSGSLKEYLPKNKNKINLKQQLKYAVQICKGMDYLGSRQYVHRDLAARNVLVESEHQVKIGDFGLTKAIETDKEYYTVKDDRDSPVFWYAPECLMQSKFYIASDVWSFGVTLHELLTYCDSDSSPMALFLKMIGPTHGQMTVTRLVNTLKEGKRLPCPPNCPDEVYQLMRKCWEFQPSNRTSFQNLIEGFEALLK
Description: Inhibition of recombinant human JAK1 (866-end residues) in presence of ATP

in vitro [3] = settings: mouse, microsomes
Description: Metabolic stability in mouse liver microsomes assessed as parent compound remaining after 30 mins

in vitro [4] = settings: human, microsomes
Description: Metabolic stability in human liver microsomes assessed as parent compound remaining after 30 mins

in vitro [5] = settings: dog, microsomes
Description: Metabolic stability in dog liver microsomes assessed as parent compound remaining after 30 mins

in vitro [6] = settings: rat, microsomes
Description: Metabolic stability in rat liver microsomes assessed as parent compound remaining after 30 mins

in vitro [7] = settings: rat, plasma
Description: Metabolic stability in rat plasma assessed as parent compound remaining after 30 mins

CYP2C9 = CYP2C9 (Homo sapiens, UniProt P11712); experiment: in vitro
Sequence of CYP2C9 (P11712 whole entry): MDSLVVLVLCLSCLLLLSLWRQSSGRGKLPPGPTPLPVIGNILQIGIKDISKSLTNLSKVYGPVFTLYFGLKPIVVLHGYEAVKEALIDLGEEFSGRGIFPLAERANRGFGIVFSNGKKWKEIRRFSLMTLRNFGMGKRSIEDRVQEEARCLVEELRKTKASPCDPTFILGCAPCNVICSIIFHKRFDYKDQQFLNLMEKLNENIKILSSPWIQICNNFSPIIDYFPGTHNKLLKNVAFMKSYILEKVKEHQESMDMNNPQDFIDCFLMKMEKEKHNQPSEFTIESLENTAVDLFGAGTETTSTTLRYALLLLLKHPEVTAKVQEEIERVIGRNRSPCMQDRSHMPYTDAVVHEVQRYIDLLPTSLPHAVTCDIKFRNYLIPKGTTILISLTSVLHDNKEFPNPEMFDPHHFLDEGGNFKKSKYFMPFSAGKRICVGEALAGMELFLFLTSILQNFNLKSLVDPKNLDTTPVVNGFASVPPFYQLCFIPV
Description: Inhibition of CYP2C9 (unknown origin) assessed as residual activity at 10 uM relative to control

in vivo [8] = settings: Sprague-Dawley, rat, iv, 5 mg/kg
Description: AUC (0 to infinity) in Sprague-Dawley rat at 5 mg/kg, iv by LC-MS/MS analysis

in vivo [9] = settings: beagle, dog, po, 5 mg/kg
Description: Half life in Beagle dog at 5 mg/kg, po by LC-MS/MS analysis

in vivo [10] = settings: beagle, dog, po, 5 mg/kg; remark: listed apart in the source
Description: Cmax in Beagle dog at 5 mg/kg, po by LC-MS/MS analysis

in vivo [11] = settings: Sprague-Dawley, rat, iv, 5 mg/kg; remark: listed apart in the source
Description: MRT in Sprague-Dawley rat at 5 mg/kg, iv by LC-MS/MS analysis

in vivo [12] = settings: Sprague-Dawley, rat, po, 10 mg/kg
Mus musculus = species: Mus musculus; settings: in vivo, po, 10 mg/kg
in vivo [13] = settings: Sprague-Dawley, rat, po, 10 mg/kg; remark: listed apart in the source
in vivo [14] = settings: ICR, mouse, po, 10 mg/kg
in vivo [15] = settings: beagle, dog, iv, 3 mg/kg
Description: Half life in Beagle dog at 3 mg/kg, iv by LC-MS/MS analysis

[16] = biological target: Voltage-gated inwardly rectifying potassium channel KCNH2 (Homo sapiens, UniProt Q12809)
Sequence of Voltage-gated inwardly rectifying potassium channel KCNH2 (Q12809 whole entry): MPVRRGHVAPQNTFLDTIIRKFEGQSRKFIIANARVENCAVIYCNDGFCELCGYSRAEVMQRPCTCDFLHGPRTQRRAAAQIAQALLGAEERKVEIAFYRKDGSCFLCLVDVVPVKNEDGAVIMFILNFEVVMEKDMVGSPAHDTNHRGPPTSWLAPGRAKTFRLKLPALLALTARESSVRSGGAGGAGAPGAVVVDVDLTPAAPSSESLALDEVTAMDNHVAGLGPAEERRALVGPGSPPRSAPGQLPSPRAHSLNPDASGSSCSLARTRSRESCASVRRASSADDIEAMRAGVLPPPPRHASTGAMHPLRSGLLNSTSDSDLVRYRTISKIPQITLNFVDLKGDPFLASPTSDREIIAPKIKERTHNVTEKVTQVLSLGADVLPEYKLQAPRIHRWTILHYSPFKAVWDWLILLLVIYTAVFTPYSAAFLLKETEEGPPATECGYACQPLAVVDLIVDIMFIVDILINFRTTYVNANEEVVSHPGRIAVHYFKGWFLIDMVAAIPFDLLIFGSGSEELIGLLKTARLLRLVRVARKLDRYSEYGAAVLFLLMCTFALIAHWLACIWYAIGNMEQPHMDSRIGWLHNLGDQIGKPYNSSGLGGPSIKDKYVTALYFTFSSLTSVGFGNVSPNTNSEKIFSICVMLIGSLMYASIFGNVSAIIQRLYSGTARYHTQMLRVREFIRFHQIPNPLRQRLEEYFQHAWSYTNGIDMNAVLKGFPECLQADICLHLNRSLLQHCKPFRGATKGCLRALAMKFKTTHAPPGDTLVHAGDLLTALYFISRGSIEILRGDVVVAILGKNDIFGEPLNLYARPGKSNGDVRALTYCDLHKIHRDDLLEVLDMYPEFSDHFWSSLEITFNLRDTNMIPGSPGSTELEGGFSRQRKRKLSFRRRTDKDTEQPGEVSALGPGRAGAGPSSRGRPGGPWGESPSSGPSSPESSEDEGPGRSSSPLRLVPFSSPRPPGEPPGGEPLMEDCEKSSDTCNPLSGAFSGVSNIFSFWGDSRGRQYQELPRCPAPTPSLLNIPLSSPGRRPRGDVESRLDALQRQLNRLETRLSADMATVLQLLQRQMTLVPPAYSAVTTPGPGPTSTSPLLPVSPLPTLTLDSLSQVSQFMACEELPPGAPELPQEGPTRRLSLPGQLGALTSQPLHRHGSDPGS
Description: Inhibition of human ERG expressed in HEK293 cells by automated patch clamp method

in vivo [17] = settings: Sprague-Dawley, rat, iv, 5 mg/kg; remark: listed apart in the source
Description: AUC (0 to t) in Sprague-Dawley rat at 5 mg/kg, iv by LC-MS/MS analysis

in vivo [18] = settings: Sprague-Dawley, rat, po, 10 mg/kg; remark: listed apart in the source
Description: Half life in Sprague-Dawley rat at 10 mg/kg, po by LC-MS/MS analysis

in vitro [19] = settings: human, Caco-2
in vitro [20] = settings: human, plasma
Description: Metabolic stability in human plasma assessed as parent compound remaining after 120 mins

in vivo [21] = settings: ICR, mouse, iv, 5 mg/kg
Description: MRT in ICR mouse at 5 mg/kg, iv by LC-MS/MS analysis

in vivo [22] = settings: ICR, mouse, po, 10 mg/kg; remark: listed apart in the source
Description: MRT in ICR mouse at 10 mg/kg, po by LC-MS/MS analysis

in vitro [23] = settings: human, Caco-2; remark: listed apart in the source
in vivo [24] = settings: beagle, dog, iv, 3 mg/kg; remark: listed apart in the source
Description: MRT in Beagle dog at 3 mg/kg, iv by LC-MS/MS analysis

in vivo [25] = settings: beagle, dog, iv, 3 mg/kg; remark: listed apart in the source
in vivo [26] = settings: beagle, dog, po, 5 mg/kg; remark: listed apart in the source
Description: AUC (0 to t) in Beagle dog at 5 mg/kg, po by LC-MS/MS analysis

in vivo [27] = settings: ICR, mouse, po, 10 mg/kg; remark: listed apart in the source
in vivo [28] = settings: beagle, dog, po, 5 mg/kg; remark: listed apart in the source
Description: Tmax in Beagle dog at 5 mg/kg, po by LC-MS/MS analysis

in vitro [29] = settings: rat, plasma; remark: listed apart in the source
Description: Metabolic stability in rat plasma assessed as parent compound remaining after 120 mins

[30] = biological target: T1, Tyrosine-protein kinase JAK2; settings: read-out: INH
Description: Inhibition of recombinant human JAK2 (808-end residues) at 10 uM in presence of ATP relative to control

CYP2C19 = CYP2C19 (Homo sapiens, UniProt P33261); experiment: in vitro
Description: Inhibition of CYP2C19 (unknown origin) assessed as residual activity at 10 uM relative to control

in vivo [31] = settings: Sprague-Dawley, rat, iv, 5 mg/kg; remark: listed apart in the source
Description: Half life in Sprague-Dawley rat at 5 mg/kg, iv by LC-MS/MS analysis

CYP2D6 = CYP2D6 (Homo sapiens, UniProt P10635); experiment: in vitro
Sequence of CYP2D6 (P10635 whole entry): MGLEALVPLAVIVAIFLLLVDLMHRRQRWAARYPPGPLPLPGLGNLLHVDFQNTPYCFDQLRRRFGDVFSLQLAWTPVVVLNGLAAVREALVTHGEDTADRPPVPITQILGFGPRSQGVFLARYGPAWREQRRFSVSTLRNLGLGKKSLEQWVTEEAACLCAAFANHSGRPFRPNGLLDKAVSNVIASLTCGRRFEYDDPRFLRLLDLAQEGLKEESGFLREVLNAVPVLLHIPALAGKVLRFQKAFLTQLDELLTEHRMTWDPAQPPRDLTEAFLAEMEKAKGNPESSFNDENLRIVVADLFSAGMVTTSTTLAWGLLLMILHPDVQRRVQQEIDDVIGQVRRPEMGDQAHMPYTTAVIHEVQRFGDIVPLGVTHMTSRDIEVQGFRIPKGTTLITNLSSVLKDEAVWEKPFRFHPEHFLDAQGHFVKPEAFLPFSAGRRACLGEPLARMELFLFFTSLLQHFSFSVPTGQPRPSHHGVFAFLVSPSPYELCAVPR
Description: Inhibition of CYP2D6 (unknown origin) assessed as residual activity at 10 uM relative to control

in vivo [32] = settings: ICR, mouse, iv, 5 mg/kg; remark: listed apart in the source
Description: AUC (0 to infinity) in ICR mouse at 5 mg/kg, iv by LC-MS/MS analysis

in vivo [33] = settings: beagle, dog, po, 5 mg/kg; remark: listed apart in the source
Description: MRT in Beagle dog at 5 mg/kg, po by LC-MS/MS analysis

in vitro [34] = settings: rat, plasma; remark: listed apart in the source
Description: Protein binding in rat plasma

in vivo [35] = settings: ICR, mouse, po, 10 mg/kg; remark: listed apart in the source
Description: Half life in ICR mouse at 10 mg/kg, po by LC-MS/MS analysis

in vivo [36] = settings: ICR, mouse, po, 10 mg/kg; remark: listed apart in the source
in vitro [37] = settings: human, plasma; remark: listed apart in the source
Description: Metabolic stability in human plasma assessed as parent compound remaining after 30 mins

in vivo [38] = settings: ICR, mouse, iv, 5 mg/kg; remark: listed apart in the source
Description: AUC (0 to t) in ICR mouse at 5 mg/kg, iv by LC-MS/MS analysis

Canis familiaris = species: Canis familiaris; settings: dog, in vivo, po, 5 mg/kg
Description: Oral bioavailability in Beagle dog at 5 mg/kg by LC-MS/MS analysis

in vitro [39] = settings: human, plasma; remark: listed apart in the source
Description: Protein binding in human plasma

in vivo [40] = settings: Sprague-Dawley, rat, po, 10 mg/kg; remark: listed apart in the source
in vivo [41] = settings: beagle, dog, iv, 3 mg/kg; remark: listed apart in the source
CYP1A2 = biological target: T2, CYP1A2 (Homo sapiens, UniProt P05177); experiment: in vitro
T2 sequence (P05177 whole entry): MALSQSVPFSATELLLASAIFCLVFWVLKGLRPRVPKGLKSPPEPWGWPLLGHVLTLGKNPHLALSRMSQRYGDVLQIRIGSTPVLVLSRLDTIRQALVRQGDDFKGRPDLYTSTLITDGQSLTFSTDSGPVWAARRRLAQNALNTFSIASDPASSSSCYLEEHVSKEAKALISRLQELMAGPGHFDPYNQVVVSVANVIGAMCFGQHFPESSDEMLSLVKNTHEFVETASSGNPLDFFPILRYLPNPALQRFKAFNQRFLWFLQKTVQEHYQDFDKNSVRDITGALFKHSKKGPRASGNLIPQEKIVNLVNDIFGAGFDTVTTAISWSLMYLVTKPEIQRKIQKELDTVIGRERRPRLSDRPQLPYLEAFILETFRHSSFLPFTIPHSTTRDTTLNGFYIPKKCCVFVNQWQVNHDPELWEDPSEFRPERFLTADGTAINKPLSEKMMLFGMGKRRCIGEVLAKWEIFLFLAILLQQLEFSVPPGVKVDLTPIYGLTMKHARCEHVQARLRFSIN
Description: Inhibition of CYP1A2 (unknown origin) assessed as residual activity at 10 uM relative to control

in vivo [42] = settings: ICR, mouse, po, 10 mg/kg; remark: listed apart in the source
CYP3A4 = CYP3A4 (Homo sapiens, UniProt P08684); experiment: in vitro
Sequence of CYP3A4 (P08684 whole entry): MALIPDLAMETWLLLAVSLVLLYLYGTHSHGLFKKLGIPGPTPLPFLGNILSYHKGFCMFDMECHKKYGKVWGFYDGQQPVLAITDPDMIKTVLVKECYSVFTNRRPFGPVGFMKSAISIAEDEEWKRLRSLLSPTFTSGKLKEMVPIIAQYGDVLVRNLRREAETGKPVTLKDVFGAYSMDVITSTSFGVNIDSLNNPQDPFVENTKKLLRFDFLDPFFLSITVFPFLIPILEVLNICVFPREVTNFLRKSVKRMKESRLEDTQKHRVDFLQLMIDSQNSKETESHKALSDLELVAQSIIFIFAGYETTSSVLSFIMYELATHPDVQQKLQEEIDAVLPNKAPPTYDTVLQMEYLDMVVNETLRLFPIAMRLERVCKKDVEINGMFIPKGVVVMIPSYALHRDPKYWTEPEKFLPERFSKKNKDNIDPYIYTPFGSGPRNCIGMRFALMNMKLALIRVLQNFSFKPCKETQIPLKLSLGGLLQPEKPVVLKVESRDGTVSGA
Description: Inhibition of CYP3A4 (unknown origin) assessed as residual activity at 10 uM relative to control

in vivo [43] = settings: Sprague-Dawley, rat, po, 10 mg/kg; remark: listed apart in the source
in vivo [44] = settings: beagle, dog, po, 5 mg/kg; remark: listed apart in the source
Description: AUC (0 to infinity) in Beagle dog at 5 mg/kg, po by LC-MS/MS analysis

in vivo [45] = settings: ICR, mouse, iv, 5 mg/kg; remark: listed apart in the source
Description: Half life in ICR mouse at 5 mg/kg, iv by LC-MS/MS analysis

in vivo [46] = settings: Sprague-Dawley, rat, po, 10 mg/kg; remark: listed apart in the source
Description: MRT in Sprague-Dawley rat at 10 mg/kg, po by LC-MS/MS analysis

T1 sequence (O60674 whole entry): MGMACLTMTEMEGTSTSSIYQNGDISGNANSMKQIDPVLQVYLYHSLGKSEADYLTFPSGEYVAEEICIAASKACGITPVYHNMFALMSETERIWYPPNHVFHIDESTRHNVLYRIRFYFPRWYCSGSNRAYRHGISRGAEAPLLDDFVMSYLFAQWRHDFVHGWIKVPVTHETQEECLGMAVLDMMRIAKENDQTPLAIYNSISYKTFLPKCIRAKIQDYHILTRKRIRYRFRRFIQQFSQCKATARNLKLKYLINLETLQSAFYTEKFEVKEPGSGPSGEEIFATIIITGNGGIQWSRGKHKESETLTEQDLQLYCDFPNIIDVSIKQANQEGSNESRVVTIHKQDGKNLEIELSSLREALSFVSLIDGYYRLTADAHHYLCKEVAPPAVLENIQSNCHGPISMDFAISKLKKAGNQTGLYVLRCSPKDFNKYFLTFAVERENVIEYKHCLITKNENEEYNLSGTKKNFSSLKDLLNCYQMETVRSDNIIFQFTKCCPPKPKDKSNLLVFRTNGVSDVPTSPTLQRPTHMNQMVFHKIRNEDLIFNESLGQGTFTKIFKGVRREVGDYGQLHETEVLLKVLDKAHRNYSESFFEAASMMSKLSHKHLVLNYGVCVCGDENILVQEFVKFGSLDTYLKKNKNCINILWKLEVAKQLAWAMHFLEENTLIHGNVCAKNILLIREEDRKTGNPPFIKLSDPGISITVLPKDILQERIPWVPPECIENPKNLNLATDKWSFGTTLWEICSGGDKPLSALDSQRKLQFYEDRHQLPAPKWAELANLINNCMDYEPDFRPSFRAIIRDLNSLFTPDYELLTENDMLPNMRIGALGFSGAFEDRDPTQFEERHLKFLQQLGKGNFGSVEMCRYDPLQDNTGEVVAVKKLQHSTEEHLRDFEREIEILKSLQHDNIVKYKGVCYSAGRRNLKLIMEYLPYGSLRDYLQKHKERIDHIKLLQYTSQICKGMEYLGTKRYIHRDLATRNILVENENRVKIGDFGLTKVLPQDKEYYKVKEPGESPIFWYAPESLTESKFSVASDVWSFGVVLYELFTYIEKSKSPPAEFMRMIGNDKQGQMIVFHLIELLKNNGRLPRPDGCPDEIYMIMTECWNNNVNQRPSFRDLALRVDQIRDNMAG

IC50 [1]: 2400 nM
IC50 [2]: 79 nM
SMILES: CCS(=O)(=O)N1CC[C@@H](N(C)c2ncnc3[nH]ccc23)C1

IC50 [1]: 5900 nM
IC50 [2]: 260 nM
SMILES: CN(c1ncnc2[nH]ccc12)[C@H]1CN(C(=O)CC#N)CC1(C)C

IC50 [1]: 19000 nM
IC50 [2]: 650 nM
SMILES: CN(c1ncnc2[nH]ccc12)[C@@H]1CCN(S(=O)(=O)c2cn(C)cn2)C1

IC50 [1]: 57 nM
remaining at 0.5 h (in vitro [3]): 10%
remaining at 0.5 h (in vitro [4]): 26.3%
IC50 [2]: 4.1 nM
remaining at 0.5 h (in vitro [5]): 31.6%
remaining at 0.5 h (in vitro [6]): 3.7%
SMILES: CN(c1ncnc2[nH]ccc12)[C@@H]1CCN(S(=O)(=O)c2cccc(C#N)c2)C1

IC50 [1]: 4400 nM
IC50 [2]: 270 nM
SMILES: CN(c1ncnc2[nH]ccc12)[C@@H]1CCN(S(=O)(=O)N2CCOCC2)C1

IC50 [1]: 110 nM
IC50 [2]: 11 nM
SMILES: CN(c1ncnc2[nH]ccc12)[C@@H]1CCN(S(=O)(=O)c2ccc(F)cc2)C1

IC50 [1]: 110 nM
IC50 [2]: 19 nM
SMILES: CCN(c1ncnc2[nH]ccc12)[C@@H]1CCN(S(=O)(=O)c2cccc(C#N)c2)C1

IC50 [1]: 450 nM
IC50 [2]: 16 nM
SMILES: CN(c1ncnc2[nH]ccc12)[C@H]1CN(C(=O)CC#N)CC12CCC2

IC50 [1]: 690 nM
IC50 [2]: 13 nM
SMILES: CN(c1ncnc2[nH]ccc12)[C@@H]1CCN(S(=O)(=O)c2ccc3ccccc3c2)C1

IC50 [1]: 1900 nM
IC50 [2]: 53 nM
SMILES: CN(c1ncnc2[nH]ccc12)[C@@H]1CCN(CCC#N)C1

IC50 [1]: 1900 nM
IC50 [2]: 510 nM
SMILES: N#Cc1cccc(S(=O)(=O)N2CC[C@@H](Nc3ncnc4[nH]ccc34)C2)c1

IC50 [1]: 1800 nM
IC50 [2]: 19 nM
SMILES: Cc1ccc(S(=O)(=O)N2CC[C@@H](N(C)c3ncnc4[nH]ccc34)C2)cc1

IC50 [1]: 130 nM
IC50 [2]: 25 nM
SMILES: CN(c1ncnc2[nH]ccc12)[C@@H]1CCN(S(=O)(=O)c2ccccc2F)C1

IC50 [1]: 53 nM
IC50 [2]: 14 nM
SMILES: CN(c1ncnc2[nH]ccc12)[C@@H]1CCN(S(=O)(=O)c2cccc(F)c2)C1

IC50 [1]: 1500 nM
IC50 [2]: 26 nM
SMILES: COc1ccc(S(=O)(=O)N2CC[C@@H](N(C)c3ncnc4[nH]ccc34)C2)cc1

IC50 [1]: 1400 nM
IC50 [2]: 17 nM
SMILES: N#Cc1cccc(S(=O)(=O)N2CC[C@@H](N(CC3CC3)c3ncnc4[nH]ccc34)C2)c1

remaining at 0.5 h (in vitro [7]): > 100%
activity at 10 µM (CYP2C9): > 100%
AUC(0-inf) (in vivo [8]): 950 ng·h/mL
half-life (in vivo [9]): 1.7 h
Cmax (in vivo [10]): 1900 ng/mL
MRT (in vivo [11]): 0.9 h
Tmax (in vivo [12]): 0.3 h
F (Mus musculus): 190%
AUC(0-t) (in vivo [13]): 4100 ng·h/mL
AUC(0-inf) (in vivo [14]): 2100 ng·h/mL
half-life (in vivo [15]): 1.6 h
AUC(0-t) (in vivo [17]): 930 ng·h/mL
remaining at 0.5 h (in vitro [3]): > 100%
half-life (in vivo [18]): 2.1 h
Papp B→A (in vitro [19]): 7.7 ×10⁻⁶ cm/s
remaining at 2 h (in vitro [20]): 99.8%
MRT (in vivo [21]): 1.4 h
MRT (in vivo [22]): 3.1 h
Papp A→B (in vitro [23]): 3.8 ×10⁻⁶ cm/s
MRT (in vivo [24]): 2.4 h
AUC(0-inf) (in vivo [25]): 2200 ng·h/mL
AUC(0-t) (in vivo [26]): 6400 ng·h/mL
remaining at 0.5 h (in vitro [4]): 97.6%
Tmax (in vivo [27]): 0.3 h
Tmax (in vivo [28]): 1.1 h
remaining at 2 h (in vitro [29]): > 100%
inhibition at 10 µM [30]: > 90%
activity at 10 µM (CYP2C19): 91.8%
half-life (in vivo [31]): 0.7 h
activity at 10 µM (CYP2D6): > 100%
AUC(0-inf) (in vivo [32]): 680 ng·h/mL
MRT (in vivo [33]): 3.1 h
fraction unbound (in vitro [34]): 0.823
remaining at 0.5 h (in vitro [5]): 92.8%
half-life (in vivo [35]): 2.1 h
AUC(0-t) (in vivo [36]): 1900 ng·h/mL
remaining at 0.5 h (in vitro [37]): 96.3%
AUC(0-t) (in vivo [38]): 510 ng·h/mL
F (Canis familiaris): 180%
fraction unbound (in vitro [39]): 0.853
AUC(0-inf) (in vivo [40]): 4300 ng·h/mL
AUC(0-t) (in vivo [41]): 2100 ng·h/mL
activity at 10 µM (CYP1A2): 89.3%
Cmax (in vivo [42]): 1000 ng/mL
activity at 10 µM (CYP3A4): 98.2%
Cmax (in vivo [43]): 1900 ng/mL
AUC(0-inf) (in vivo [44]): 6500 ng·h/mL
half-life (in vivo [45]): 0.9 h
remaining at 0.5 h (in vitro [6]): 92.8%
MRT (in vivo [46]): 2.9 h
SMILES: CN(c1ncnc2[nH]ccc12)[C@@H]1CCN(C(=O)CC#N)C1
IC50 [16]: 93000 nM

IC50 [1]: 1700 nM
IC50 [2]: 160 nM
SMILES: N#CCC(=O)N1CC[C@@H](N(CC2CC2)c2ncnc3[nH]ccc23)C1
